Test results taken from patent US8975248B2, “Combinations of therapeutic agents for treating cancer” (Sigma-Tau Industrie Farmaceutiche Riunite S.p.A., priority 2004, dated 2015).
Like-named read-outs stand apart in the source and are kept apart here.

What was measured:
[1] = test system: NCI-H460 non-small cell lung carcinoma; assay: Antitumor activity against NCI-H460 xenograft (docetaxel, carboplatin); format: in vivo, human (xenograft in CD1 nu/nu mice)
[2] = test system: MCF-7 human breast ca.; assay: Antitumor activity against MCF-7 breast carcinoma xenograft; conditions: for BWL % (body weight loss): in vivo, po
Procedure: The pellets are placed in the inter scapular region one day before the tumor cells inoculation. 8 mice/group are treated 6 days after tumor injection with the following drugs: • 1. Vehicle • 2.

[3] = Maximum tolerated dose (MTD) in tumor-bearing mice; format: in vivo
[4] = test system: A2780/DDP platinum-resistant ovarian carcinoma; assay: Antitumor activity against A2780/DDP xenograft; format: in vivo, human (xenograft in CD1 nu/nu mice)
Procedure: 8 mice/group are treated 3 days after tumor injection with the following drugs. • 1. Vehicle • 2.
(§1) In all the combination groups, the drug were administered 1 h before 7-t butoxyiminomethylcamptothecin.

[5] = test system: NCI-H460 NSCLC; assay: Antitumor activity against NCI-H460 xenograft (paclitaxel); conditions: for reduction of the tumor volume: 5 days for 3 cycles
Procedure: (§2) Mice are treated with 3 intravenously doses of paclitaxel at days 3, 10, 17 after tumor injection. […] Treatments in NCI-H460 tumor model are performed in the following groups of 8 mice each: • 1. Vehicle • 2. 50 mg/15 ml/kg, i.v. of paclitaxel (3, 10, 17) • 3. […] 25 mg/15 ml/kg, i.v. of paclitaxel (3, 10, 17) • 5.

[6] = test system: MDA MB 435S human breast cancer; assay: Antitumor activity against MDA MB 435S xenograft; format: in vivo, human (xenograft in BALB/c nu/nu mice)
Procedure: Test system: BALB/c nu/nu mice for tumor models are used.
The cells are harvested by trypsinisation, washed twice in HBSS and counted using Trypan Blue to distinguish viable cells.
Doxorubicin (either on its own or in conjunction with Gimatecan) is administered 3 times per week intravenously, via the tail vein (i.v.). • 1. Vehicle • 2.
The paired t-test is used to determine differences in body weight changes from Day 0 to Day 13 for groups 14 and 15 and from Day 0 to Day 20 for all other groups (Table 4). All calculations are done using SigmaStat 3.0. The one way ANOVA procedure is used for statistical calculations of differences in the tumor volumes.

[7] = test system: A2780 ovarian carcinoma; assay: Antitumor activity against A2780 ovarian carcinoma xenograft; format: in vivo, human (s.c. xenograft in CD1 nu/nu mice)
Procedure: Vehicle • 2. […] Oxaliplatin 7 mg/10 ml/kg and 4.7 mg/10 ml/kg, i.p. (q4dx2, days 3, 7). • 4. Combination groups: 7-t-butoxyiminomethylcamptothecin+oxaliplatin: 0.28+7, 0.28+4.7, 0.19+7, 0.19+4.7. • 5. […] Oxaliplatin 7 mg/10 ml/kg, i.p. (q7dx2, days 3, 10). • 7. Combination groups: 7-t-butoxyiminomethylcamptothecin+oxaliplatin 0.19+7.
7-8 mice/group are treated 3 days after tumor injection with the following drugs. • 1. Vehicle • 2. […] Carboplatin 50 mg/10 ml/kg, i.p. (q7dx2, days 3, 10). • 7. Combination groups: 7-t-butoxyiminomethylcamptothecin+carboplatin 0.19+50.
as §1

[8] = test system: NCI-H460 NSCLC; conditions: in vivo, po
Procedure: as §2

[9] = test system: DU145 prostate carcinoma; assay: Antitumor activity against DU145 xenograft; conditions: for BWL % (body weight loss): in vivo, po
Procedure: 8 mice/group are treated 14 days after tumor injection with the following drugs: • 1. Vehicle • 2.
8 mice/group are also treated 14 days after tumor injection with the following drugs: • 1. […] Docetaxel 20 mg/10 mi/kg, i.p., (q7dx3, days 14, 21, 28). • 3. Combination groups: 7-t-butoxyiminomethylcamptothecin+docetaxel 0.17+20.

[10] = docetaxel 20 mg/kg i.p. q3-4dx2
[11] = carboplatin 50 mg/kg i.p. q4dx2
[12] = A 0.28 mg/kg p.o. qdx5/w, 0.28 mg/kg
[13] = A 0.08 mg/kg p.o. qdx5/w, 3 cycles

Question: What does the source list for `CC(=O)O[C@@]12CO[C@@H]1C[C@H](O)[C@@]1(C)C(=O)[C@H](O)C3=C(C)[C@@H](OC(=O)[C@H](O)[C@@H](NC(=O)OC(C)(C)C)c4ccccc4)C[C@@](O)([C@@H](OC(=O)c4ccccc4)[C@H]21)C3(C)C` [B, docetaxel, reference compound]?
Answer: TVI % (tumor volume inhibition) ([1]; docetaxel 20 mg/kg i.p. q4dx2): 63%; CR (complete response) [2, 10]: 1/8; TVI % (tumor volume inhibition) [2, 10]: 73%; MTD ([3]; CD1 nu/nu, mouse, in vivo, ip, docetaxel i.p. q4dx2, read-out: MTD): 20 mg/kg

Question: With carboplatin [reference compound] as the compound, how does the “TVI % (tumor volume inhibition)” value [4, 11] read?
Answer: 34%

Question: And the “TVI % (tumor volume inhibition)” value [1, 11]?
Answer: 59%

Question: What about the MTD ([3]; carboplatin i.p. q4dx2) of the same compound?
Answer: 50 mg/kg

Question: For `CC(=O)O[C@H]1C(=O)[C@@]2(C)[C@H]([C@H](OC(=O)c3ccccc3)[C@]3(O)C[C@H](OC(=O)[C@H](O)[C@@H](NC(=O)c4ccccc4)c4ccccc4)C(C)=C1C3(C)C)[C@]1(OC(C)=O)CO[C@@H]1C[C@@H]2O` [B, paclitaxel, reference compound], which “T/C % (TW in treated mice/TW in control mice × 100)” value ([5]; paclitaxel 25 mg/kg i.v. q7dx3) is on record?
Answer: 55.2%

Question: What about the “T/C % (TW in treated mice/TW in control mice × 100)” value ([5]; paclitaxel 33.3 mg/kg i.v. q7dx3) of the same compound?
Answer: 36.8%

Question: What about the “T/C % (TW in treated mice/TW in control mice × 100)” value ([5]; paclitaxel 50 mg/kg i.v. q7dx3) of the same compound?
Answer: 38.6%

Question: And the MTD ([3]; female, CD1 nu/nu, mouse, in vivo, iv, paclitaxel i.v. q7dx3, read-out: tolerated dose (MTD))?
Answer: 50 mg/kg

Question: What does the source list for `CC[C@@]1(O)C(=O)OCc2c1cc1n(c2=O)Cc2c-1nc1ccccc1c2/C=N/OC(C)(C)C` [A]?
Answer: BWL % (body weight loss) ([6]; A 0.07 mg/kg p.o. qdx5/w): (+2.5) %; T/C % ([6]; A 0.07 mg/kg p.o. qdx5/w): 93%; Tox (dead/treated mice) ([6]; A 0.07 mg/kg p.o. qdx5/w): 9/9; BWL % (body weight loss) ([6]; A 0.14 mg/kg p.o. qdx5/w): 1%; T/C % ([6]; A 0.14 mg/kg p.o. qdx5/w): 46%; Tox (dead/treated mice) ([6]; A 0.14 mg/kg p.o. qdx5/w): 0/9; BWL % (body weight loss) ([6]; A 0.21 mg/kg p.o. qdx5/w): 1%; T/C % ([6]; A 0.21 mg/kg p.o. qdx5/w): 5%; Tox (dead/treated mice) ([6]; A 0.21 mg/kg p.o. qdx5/w): 1/9; BWL % (body weight loss) ([7]; A 0.19 mg/kg p.o. qdx5/w): 6%; CR (complete response) ([7]; A 0.19 mg/kg p.o. qdx5/w): 8/8; LCK (log10 cell kill) ([7]; A 0.19 mg/kg p.o. qdx5/w): 2.15; TVI % (tumor volume inhibition) ([7]; A 0.19 mg/kg p.o. qdx5/w): 100%; Tox (dead/treated mice) ([7]; A 0.19 mg/kg p.o. qdx5/w): 0/8; BWL % (body weight loss) ([7]; A 0.19 mg/kg p.o. qdx5/wx2w): 6%; CR (complete response) ([7]; A 0.19 mg/kg p.o. qdx5/wx2w): 4/7; LCK (log10 cell kill) ([7]; A 0.19 mg/kg p.o. qdx5/wx2w): 3.15; TVI % (tumor volume inhibition) ([7]; A 0.19 mg/kg p.o. qdx5/wx2w): 100%; Tox (dead/treated mice) ([7]; A 0.19 mg/kg p.o. qdx5/wx2w): 0/7; BWL % (body weight loss) ([7]; A 0.28 mg/kg p.o. qdx5/w): 13%; CR (complete response) ([7]; A 0.28 mg/kg p.o. qdx5/w): 8/8; TVI % (tumor volume inhibition) ([7]; A 0.28 mg/kg p.o. qdx5/w): 100%; Tox (dead/treated mice) ([7]; A 0.28 mg/kg p.o. qdx5/w): 0/8; LCK (log10 cell kill) [7, 12]: 2.44; BWL % (body weight loss) ([4]; A 0.19 mg/kg p.o. qdx5/w): 1%; LCK (log10 cell kill) ([4]; A 0.19 mg/kg p.o. qdx5/w): 0.18; TVI % (tumor volume inhibition) ([4]; A 0.19 mg/kg p.o. qdx5/w): 35%; Tox (dead/treated mice) ([4]; A 0.19 mg/kg p.o. qdx5/w): 0/8; BWL % (body weight loss) ([4]; A 0.28 mg/kg p.o. qdx5/w): 7%; LCK (log10 cell kill) ([4]; A 0.28 mg/kg p.o. qdx5/w): 0.23; TVI % (tumor volume inhibition) ([4]; A 0.28 mg/kg p.o. qdx5/w): 46%; Tox (dead/treated mice) ([4]; A 0.28 mg/kg p.o. qdx5/w): 0/8; T/C % (TW in treated mice/TW in control mice × 100) [5, 13]: 59.5%; Tox (dead/treated mice) [5, 13]: 0/8; T/C % (TW in treated mice/TW in control mice × 100) ([5]; A 0.125 mg/kg p.o. qdx5/w, 3 cycles): 9.9%; Tox (dead/treated mice) ([5]; A 0.125 mg/kg p.o. qdx5/w, 3 cycles, 0.125 mg/kg): 0/8; reduction of the tumor volume ([5]; A 0.125 mg/kg): ~90%; T/C % (TW in treated mice/TW in control mice × 100) ([5]; A 0.25 mg/kg p.o. qdx5/w, 3 cycles): 1.5%; Tox (dead/treated mice) ([5]; A 0.25 mg/kg p.o. qdx5/w, 3 cycles, 0.25 mg/kg): 0/8; reduction of the tumor volume ([5]; A 0.25 mg/kg): about 99%; BWL % (body weight loss) ([8]; 0.08 mg/kg): 0%; BWL % (body weight loss) ([8]; 0.125 mg/kg): 0%; BWL % (body weight loss) ([8]; 0.25 mg/kg): 0%; BWL % (body weight loss) ([1]; A 0.19 mg/kg p.o. qdx5/w): 8%; CR (complete response) ([1]; A 0.19 mg/kg p.o. qdx5/w): 1/8; LCK (log10 cell kill) ([1]; A 0.19 mg/kg p.o. qdx5/w): 1.14; TVI % (tumor volume inhibition) ([1]; A 0.19 mg/kg p.o. qdx5/w): 79%; Tox (dead/treated mice) ([1]; A 0.19 mg/kg p.o. qdx5/w): 0/8; BWL % (body weight loss) ([1]; A 0.19 mg/kg p.o. qdx5/wx2w): 7%; CR (complete response) ([1]; A 0.19 mg/kg p.o. qdx5/wx2w): 0/7; LCK (log10 cell kill) ([1]; A 0.19 mg/kg p.o. qdx5/wx2w): 2.3; TVI % (tumor volume inhibition) ([1]; A 0.19 mg/kg p.o. qdx5/wx2w): 94%; Tox (dead/treated mice) ([1]; A 0.19 mg/kg p.o. qdx5/wx2w): 0/7; BWL % (body weight loss) ([1]; A 0.28 mg/kg p.o. qdx5/w): 16%; CR (complete response) ([1]; A 0.28 mg/kg p.o. qdx5/w): 0/8; LCK (log10 cell kill) ([1]; A 0.28 mg/kg p.o. qdx5/w): 1.45; TVI % (tumor volume inhibition) ([1]; A 0.28 mg/kg p.o. qdx5/w): 94%; Tox (dead/treated mice) ([1]; A 0.28 mg/kg p.o. qdx5/w): 1/8; CR (complete response) ([2]; A 0.19 mg/kg p.o. qdx5/w): 1/8; TVI % (tumor volume inhibition) ([2]; A 0.19 mg/kg p.o. qdx5/w): 81%; Tox (dead/treated mice) ([2]; A 0.19 mg/kg p.o. qdx5/w): 2/8; TVI % (tumor volume inhibition) ([2]; A 0.28 mg/kg p.o. qdx5/w): 70%; Tox (dead/treated mice) ([2]; A 0.28 mg/kg p.o. qdx5/w): 1/8; CR (complete response) [2, 12]: 1/8; BWL % (body weight loss) ([2]; 0.19 mg/kg): 10%; BWL % (body weight loss) ([2]; 0.28 mg/kg): 9%; MTD at 5 days ([3]; CD1 nu/nu, mouse, in vivo, po, p.o. qdx5): 0.28 mg/kg; MTD ([3]; female, CD1 nu/nu, mouse, in vivo, oral, qdx5/w, A2780/DDP model, read-out: approximate maximum tolerated dose): ~0.28 mg/kg; MTD ([3]; male, mouse, in vivo, oral, qdx5/w, DU145 model, read-out: approximate maximum tolerated dose): ~0.25 mg/kg; CR (complete response) ([9]; A 0.19 mg/kg p.o. qdx5/w): 0/8; LCK (log10 cell kill) ([9]; A 0.19 mg/kg p.o. qdx5/w): 0.28; TVI % (tumor volume inhibition) ([9]; A 0.19 mg/kg p.o. qdx5/w): 25%; Tox (dead/treated mice) ([9]; A 0.19 mg/kg p.o. qdx5/w): 0/8; CR (complete response) ([9]; A 0.25 mg/kg p.o. qdx5/w): 0/8; LCK (log10 cell kill) ([9]; A 0.25 mg/kg p.o. qdx5/w): 0.28; TVI % (tumor volume inhibition) ([9]; A 0.25 mg/kg p.o. qdx5/w): 53%; Tox (dead/treated mice) ([9]; A 0.25 mg/kg p.o. qdx5/w): 0/8; BWL % (body weight loss) ([9]; 0.19 mg/kg): 4%; BWL % (body weight loss) ([9]; 0.25 mg/kg): 8%
